Blank lines part the entries; values can stand above or below the compound they belong to.
Columns and labels:
OTRPC4 [1] = target: T1, OTRPC4 (Mus musculus, UniProt Q9EPK8); assay: FURA-2 single cell measurement of intracellular calcium in HEK293 cells transiently expressing OTRPC4-GFP; assay type: cell-based, murine; details: for effect on cells which expressed OTRPC4: 10 μM
T1 construct: expressed in transfected cells; host or cells: HEK293 (transient, FuGENE 6)
Excerpt: The cDNA of OTRPC4 was cloned into a eukaryotic expression plasmid containing, at the C-terminal end, a green fluorescent protein (GFP) fusion section (pEGFP-N1). This plasmid was used for the subsequent expression studies. It can be inferred from the nucleotide sequence that the OTRPC4 protein may consist of 871 amino acids, for example, and contains 6 possible transmembranal segments with a sequence between segments 5 and 6 which possibly codes for a pore region of a channel (FIG. 1a). After transient transfection (which was carried out using the FuGENE 6 transfection reagent) of the expression plasmid coding for the OTRPC4-GFP fusion protein in HEK293 cells, dots of fluorescence could be detected in the plasma membrane 24-36 hours later. […] For the following experiments, HEK293 cells were transiently transfected with the above-mentioned expression plasmid containing OTRPC4 and compared, after 24-36 hours, with untransfected control cells.
The influence of extracellular osmolarity on the channel activity of OTRPC4 was investigated. After reducing the osmolarity of the extracellular solution, there was a long, transient and reversible increase in the [Ca^2+]i in the OTRPC4 expressing cells but not in the control cells (FIG. 5). Increasing the osmolarity of the extracellular solution, on the other hand, reduced the [Ca^2+]i (cf. the small diagram in FIG. 4). A significant change in the [Ca^2+]i was observed even when the extracellular solution was changed by 30 mosmol/l. The changes in [Ca^2+]i triggered by changing the osmolarity of the extracellular solution occurred rapidly and reached a peak after about 30 seconds, but varied from cell to cell (see FIG. 4). After returning to the normoosmolar solution, [Ca^2+]i rapidly returned to its base value. In order to distinguish between an influx of calcium from the extracellular medium and a release of calcium from intracellular calcium stores, calcium was replaced by EGTA in the extracellular medium while the cells were exposed to a hypotonic medium. Under these conditions, the FURA-2 signal returned to the base value (see FIG. 4).
The members of the STRPC subfamily of the TRPC channels are activated by signals produced by the activation of the phospholipase C-β (PCL-β) (6-15).
The addition of capsaicin (10 μM) and resiniferatoxin (10 μM) as well as a brief increase in the temperature to 65° C. had no effect on cells which expressed OTRPC4.

OTRPC4 [2] = target: T1, OTRPC4; assay: FURA-2 measurement of intracellular Ca2+ with luminiscence spectrometer in OTRPC4 transfected HEK293 cells; assay type: cell-based, murine; details: 100 μM; osmolarity lowered from 320 mosmol/l to 220 mosmol/l
Procedure: For testing the function of OTRPC4 transfected HEK293 cells with a further method, intracellular Ca^2+ concentration was measured with FURA-2. The experiments were conducted with luminiscence spectrometer (LS 50 B, Perkin Elmer).
For determining the extent of calcium influx into the cells, maximal intracellular Ca^2+ was induced by lonomycin. This [Ca^2+]i could be reverted to its original value by EGTA. Influx of extracellular calcium via OTRPC4 was demostrated by showing change of the intracellular Ca^2+ concentration by lowering osmolarity by 100 mosmol/l (from 320 mosmol/l to 220 mosmol/l). The hypotonic solution led to an increase in [Ca^2+]i which could be quenched by EGTA. Half of the [Ca^2+] increasing effect of hypotonic solution could be blocked by addition of LOE908 (Embaco A, Romanin C, Birke F W, Kukovetz W R, Groschner K: Inhibition of a store-operated Ca2+ entry pathway in human endothelial cells by the isoquinoline derivative LOE 908. British Journal of Pharmacology (1996) 119 702-706) (100 μM) (FIG. 10).

[3] = tested on: chloride channels activated by a change in volume; assay: Perforated patch measurement of currents triggered by hypotonic extracellular solution in control cells; assay type: cell-based; details: 50 μM
Procedure: (§1) Because of the rapid “run-down” of the ion fluxes, the other experiments were carried out using the so-called perforated patch method. Measured in standard extracellular solution, the current-voltage curve, measured by applying voltage ramps, show an outwardly rectifying form with a reverse potential of about 0 mV (FIG. 6). When the Na^+- and Ca^2+-ions were removed from the extracellular solution, the inward flux disappeared and the reverse potential moved into the negative area. The average ion fluxes at −100 and +100 mV measured with the aid of ramp protocols were −12.8±1.1 and +32.2±2.7 pA/pF, respectively (n=17, Cm=9.6±5.5 pF).
(§2) Replacing the extracellular standard solution with a solution which contained 100 mM NaCl and 100 mM mannitol (osmolarity: 320 mosmol/l) shifted Er to a more negative potential (−11.2±1.6 mV, n=14), as might be expected from a current carried by cations when the extracellular sodium concentration is reduced (see FIG. 6). Moreover, the inwardly and outwardly directed current components were reduced (−7.0±0.8 and 22.7±2.7 pA/pF at −100 and 100 mV, respectively) (see FIG. 6). The use of a hypoosmolar solution (215 mosmol/l) led, after a delay of a few seconds (about 18 seconds on average) to an increase in both the inwardly and outwardly directed currents (FIG. 7). This increase reached its maximum after 50 seconds, on average. […]

OTRPC4 [4] = target: T1, OTRPC4; assay: Perforated patch measurement of cation currents triggered by hypotonic solution in OTRPC4-expressing cells; assay type: cell-based, murine; details: 50 μM
Procedure: as §1, §2

T1 sequence (Q9EPK8 whole entry): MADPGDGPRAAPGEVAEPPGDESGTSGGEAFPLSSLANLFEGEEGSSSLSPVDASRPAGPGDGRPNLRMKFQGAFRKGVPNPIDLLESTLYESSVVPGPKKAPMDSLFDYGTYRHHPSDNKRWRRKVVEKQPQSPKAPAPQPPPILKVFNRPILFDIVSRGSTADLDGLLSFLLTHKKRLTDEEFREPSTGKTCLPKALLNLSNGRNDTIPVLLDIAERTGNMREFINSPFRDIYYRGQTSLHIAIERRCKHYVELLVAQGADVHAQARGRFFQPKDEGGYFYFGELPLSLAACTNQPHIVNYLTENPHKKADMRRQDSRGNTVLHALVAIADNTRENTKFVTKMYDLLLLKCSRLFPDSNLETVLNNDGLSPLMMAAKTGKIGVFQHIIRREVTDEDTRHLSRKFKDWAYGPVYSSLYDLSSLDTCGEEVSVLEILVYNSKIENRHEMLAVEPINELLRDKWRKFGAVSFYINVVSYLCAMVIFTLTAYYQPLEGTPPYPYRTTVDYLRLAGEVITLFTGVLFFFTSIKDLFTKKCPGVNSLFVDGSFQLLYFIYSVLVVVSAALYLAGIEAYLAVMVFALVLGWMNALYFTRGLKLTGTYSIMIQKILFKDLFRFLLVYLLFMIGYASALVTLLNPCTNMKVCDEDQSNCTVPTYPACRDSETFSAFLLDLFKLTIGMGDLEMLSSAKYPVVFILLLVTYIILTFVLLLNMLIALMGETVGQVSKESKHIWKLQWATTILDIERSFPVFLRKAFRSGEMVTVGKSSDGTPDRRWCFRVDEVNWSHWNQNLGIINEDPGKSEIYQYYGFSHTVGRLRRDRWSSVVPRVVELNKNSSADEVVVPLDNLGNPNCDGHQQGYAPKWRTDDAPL

SMILES: [Cl][Gd]([Cl])[Cl] [GdCl3]
- effect on the influx of calcium into OTRPC4-expression cells triggered by hypoosmolarity (OTRPC4 [1]; 1 mM, HEK293 cells expressing OTRPC4): no effect

SMILES: COc1cc2c(cc1OC)C(C(C(=O)N(CCc1ccc(OC)c(OC)c1OC)CCc1ccc(OC)c(OC)c1OC)c1ccccc1)=NCC2 (centres unmarked) [LOE908]
- block of the [Ca2+] increasing effect of hypotonic solution (OTRPC4 [2]): Half

SMILES: [Cl][La]([Cl])[Cl] [LaCl3]
- inhibition of the influx of calcium into OTRPC4-expression cells triggered by hypoosmolarity (OTRPC4 [1]; 100 μM, HEK293 cells expressing OTRPC4): about 50%

SMILES: O=C(O)c1cc([N+](=O)[O-])ccc1NCCCc1ccccc1 [NPPB]
- activation of currents triggered by hypotonic extracellular solution in control cells [3]: inhibited completely
- cation currents in OTRPC4-expressing cells triggered by hypotonic solution (OTRPC4 [4]): unaffected

- effect on cells which expressed OTRPC4 (OTRPC4 [1]): no effect
SMILES: COc1cc(CNC(=O)CCCC/C=C/C(C)C)ccc1O [capsaicin]

SMILES: C=C(C)[C@]12C[C@@H](C)[C@@]34O[C@](Cc5ccccc5)(O[C@@H]1[C@@H]3C=C(COC(=O)Cc1ccc(O)c(OC)c1)C[C@]1(O)C(=O)C(C)=C[C@@H]41)O2 [resiniferatoxin]
- effect on cells which expressed OTRPC4 (OTRPC4 [1]): no effect

SMILES: C/C=C(/C)C(=O)O[C@H]1C(C)=C2[C@H]([C@@H]1OC(=O)CCCCCCC)[C@@](C)(OC(C)=O)C[C@H](OC(=O)CCC)[C@@]1(O)[C@H]2OC(=O)[C@@]1(C)O [thapsigargin]
- amplitude of the FURA-2 signal triggered by the hypotonic medium after emptying the intracellular stores (OTRPC4 [1]; 5 μM, added previously, OTRPC4-expressing cells): did not alter the amplitude

From patent US20030120049A1, “Non-selective cation channel” (priority 2000, published 2003)
